{
  "source": "patent US12083105B2",
  "about": "“Compositions and methods for treating adult-onset neuronal ceroid lipofuscinosis (Kufs disease)” (CORNELL UNIVERSITY, priority 2020, dated 2024)",
  "system": "SNAP-25",
  "test": "SNAP-25 levels in total lysate of CSPα−/− primary cortical neurons (quantitative immunoblotting, β-actin normalization)",
  "type": "cell-based, mice",
  "details": "200 μM, 72 h, FIG. 3D; for augmentation of SNAP-25 levels: neurons expressing CSPα^L115R and CSPα^L116Δ; for SNAP-25 levels: neurons expressing CSPα^WT or SSPα",
  "text": "For the experiments shown in FIGS. 3A-3E, primary cortical neurons from neonatal CSPα^−/− mice were infected with lentiviruses expressing Myc-tagged CSPα^WT, CSPα^L115R, CSPα^L116Δ, SSPα, or empty lentivirus (Control) on 7 days in vitro (DIV) and examined on 17 DIV. […] The lentivirus infected cells were stained using antibodies against Myc (green), somatodendritic marker MAP2 (red), and counterstained with nuclear stain DAPI (blue). […] Immunoprecipitation (IP) for SNAP-25 was followed by quantitative immunoblotting of the co-immunoprecipitated (co-IP'd) CSPα (top blot), and normalized to the IP'd SNAP-25 (bottom blot). IP: Control=sham IP without IgG. Palm=palmitoylated. […] The mutant CSPα signal was normalized to the amount of immunoprecipitated wilt type CSPα. N.D.=not detected. Representative data from of n=4 shown. […] Immunoprecipitation using anti-synaptobrevin-2 (Syb-2) antibody was followed by quantitative immunoblotting of co-IP'd SNARE-complex partners syntaxin-1 (Synt-1) and SNAP-25. IP: Control=sham IP with plain rabbit serum. […] The Synt-1 signal was normalized to the amount of each normalized to the IP'd Syb-2. Representative data from of n=4 shown. […] The SNAP-25 signal was normalized to the amount of each normalized to the IP'd Syb-2. For the experiments shown in FIGS. 3D-3E, CSPα^−/− primary cortical neurons were lentivirally infected to express Myc-tagged CSPα^WT, CSPα^L115R, CSPα^L116Δ, SSPα, or empty lentivirus (Control) on 5 DIV, and were treated on 12 DIV with vehicle (-=0.1% DMSO), or iron chelators deferiprone (L1=200 μM) and deferoxamine (Dfx=200 μM) for 72 h. […] Cell extracts were separated by SDS-PAGE, and subjected to quantitative immunoblotting using anti-SNAP-25 antibody and β-actin for normalization. To measure palmitoylation, oligomers were disrupted by lysing neurons in 0.1 N HCl plus 0.1% Triton X-100 for 20 min at 4° C., followed by SDS-PAGE and quantitative immunoblotting against CSPα. Representative immunoblots are shown. […] FIG. 3D (right panel) show quantitation of oligomers, palmitoylated CSPα, respectively, in corresponding lane and expressed as a percentage of total. […] Cell extracts were immunoprecipitated using a negative control or anti-Syb-2 antibody, followed by quantitative immunoblotting of the co-IP'd t-SNAREs SNAP-25 and Synt-1. […] In FIGS. 3B-3E data represent means±SEM. *P<0.05; **P<0.01; ***P<0.001; ****P<0.0001 by two-tailed Student's t-test. #P<0.05 by Mann-Whitney-Wilcoxon U test. n.s.=not significant; n.d.=not detected. […]\nFor SDS-PAGE, 10-15% Laemmli gels (10.3% T and 3.3% C) were used to separate proteins on Bio-Rad apparati. […] Immunoblots were washed 5× with TBS-T and dried, then scanned on Odyssey CLx (LI-COR) and quantified using Image-Studio software (LI-COR). […]",
  "data": [
    {"smiles": "CC(=O)N(O)CCCCCNC(=O)CCC(=O)N(O)CCCCCNC(=O)CCC(=O)N(O)CCCCCN", "note": "[Dfx, N′-[5-(Acetyl-hydroxy-amino)pentyl]-N-[5-[3-(5-aminopentyl-hydroxy-carbamoyl)propanoylamino]pentyl]-N-hydroxy-butane diamide]", "values": [
      {"measurement": "augmentation of SNAP-25 levels", "result": "approximately two-fold"},
      {"measurement": "SNAP-25 levels", "result": "neither L1 nor Dfx affected SNAP-25 levels"}
    ]},
    {"smiles": "Cc1c(O)c(=O)ccn1C", "note": "[L1, 3-hydroxy-1,2-dimethyl-4(1H)-pyridone]", "values": [
      {"measurement": "augmentation of SNAP-25 levels", "result": "approximately two-fold"},
      {"measurement": "SNAP-25 levels", "result": "neither L1 nor Dfx affected SNAP-25 levels"}
    ]}
  ]
}
